The values that follow come from BindingDB's records for doi:10.1016/j.bmc.2008.01.035 (Anhui University of Technology, 2008).

This assay deals with DNA gyrase subunit A/B (Staphylococcus aureus, UniProt P0A0K8+P20831). Nature of the assay: Inhibition of Staphylococcus aureus DNA gyrase supercoiling activity.
Chain of DNA gyrase subunit A/B (P20831 whole entry): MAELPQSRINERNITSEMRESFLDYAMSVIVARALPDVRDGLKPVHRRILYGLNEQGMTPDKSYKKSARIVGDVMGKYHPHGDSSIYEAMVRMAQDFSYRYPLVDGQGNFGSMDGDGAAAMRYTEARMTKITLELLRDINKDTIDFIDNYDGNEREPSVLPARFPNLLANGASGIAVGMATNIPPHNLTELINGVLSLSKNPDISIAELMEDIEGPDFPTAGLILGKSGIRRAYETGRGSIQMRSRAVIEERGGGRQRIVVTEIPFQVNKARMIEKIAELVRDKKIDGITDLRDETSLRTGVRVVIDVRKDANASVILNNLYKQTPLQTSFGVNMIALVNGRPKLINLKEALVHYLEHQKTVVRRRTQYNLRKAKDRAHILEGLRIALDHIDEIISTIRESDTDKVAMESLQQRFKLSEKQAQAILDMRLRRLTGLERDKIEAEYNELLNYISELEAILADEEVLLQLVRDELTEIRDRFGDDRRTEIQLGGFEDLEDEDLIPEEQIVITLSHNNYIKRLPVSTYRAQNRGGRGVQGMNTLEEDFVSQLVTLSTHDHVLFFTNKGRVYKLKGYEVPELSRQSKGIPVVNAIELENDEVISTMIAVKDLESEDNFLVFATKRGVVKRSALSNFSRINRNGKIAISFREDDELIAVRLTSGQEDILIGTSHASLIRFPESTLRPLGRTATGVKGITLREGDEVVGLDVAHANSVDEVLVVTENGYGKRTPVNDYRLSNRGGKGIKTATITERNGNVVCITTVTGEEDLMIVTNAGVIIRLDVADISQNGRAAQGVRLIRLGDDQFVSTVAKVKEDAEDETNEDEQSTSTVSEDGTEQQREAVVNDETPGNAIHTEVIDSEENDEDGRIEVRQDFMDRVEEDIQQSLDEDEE
Chain of DNA gyrase subunit A/B (P0A0K8 whole entry): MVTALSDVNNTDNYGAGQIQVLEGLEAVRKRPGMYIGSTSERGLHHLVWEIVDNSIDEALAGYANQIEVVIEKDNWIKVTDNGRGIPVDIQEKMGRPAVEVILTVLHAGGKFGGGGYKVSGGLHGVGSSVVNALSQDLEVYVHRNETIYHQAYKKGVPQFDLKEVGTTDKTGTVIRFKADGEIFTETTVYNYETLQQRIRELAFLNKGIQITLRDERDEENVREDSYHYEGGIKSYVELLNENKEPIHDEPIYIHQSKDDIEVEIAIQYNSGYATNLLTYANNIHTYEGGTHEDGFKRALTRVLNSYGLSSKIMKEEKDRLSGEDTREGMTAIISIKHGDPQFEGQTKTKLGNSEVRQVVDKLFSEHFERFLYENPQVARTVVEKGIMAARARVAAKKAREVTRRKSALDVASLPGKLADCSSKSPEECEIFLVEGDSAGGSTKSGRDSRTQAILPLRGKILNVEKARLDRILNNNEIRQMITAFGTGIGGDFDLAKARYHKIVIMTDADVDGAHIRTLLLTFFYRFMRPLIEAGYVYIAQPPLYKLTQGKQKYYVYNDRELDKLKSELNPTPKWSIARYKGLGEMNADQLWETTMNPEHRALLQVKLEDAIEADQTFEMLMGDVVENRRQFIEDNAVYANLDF
Compound `CCC(=O)O/N=C(/C)N1N=C(C)CC1c1ccccc1OCc1ccc(F)cc1` (stereo not drawn) showed an IC50 of over 314000 nM. To `CC1=NN(/C(C)=N\OC(=O)c2cccnc2)C(c2ccc(OCc3ccc(F)cc3)cc2)C1` (stereo not drawn) belongs 7830 nM; to `COC1CC(c2ccccc2)=NN1/C(C)=N\OC(=O)c1ccco1` (stereo not drawn), 12200 nM; to `COC1CC(c2ccccc2)=NN1/C(C)=N\OC(=O)c1ccc(C(F)(F)F)cc1` (stereo not drawn), 308 nM. Regarding `C/C(=N/OC(=O)c1ccco1)N1N=C(c2ccc(Cl)cc2Cl)CC1c1ccccc1F` (stereo not drawn), the IC50 amounted to 271 nM. Turning to `C=CC(=O)O/N=C(/C)N1N=C(c2ccc(Cl)cc2Cl)CC1c1ccccc1F` (stereo not drawn), half-maximal inhibition (IC50) was put at 1180 nM. This IC50 lies about 4.4-fold higher than the previous one. With `C/C(=N/OC(=O)c1ccco1)N1N=C(c2ccc(Cl)cc2Cl)CC1c1ccc(C(F)(F)F)cc1` (stereo not drawn), the IC50 is 979 nM. This IC50 and that of the compound before are within 1.5-fold of each other. To `CC1=NN2C(C1)c1ccccc1CC2(C)C` (stereo not drawn) belongs 1160 nM.
